The subject of one data set is Hybridoma (MHC-I). Briefly: IL-2 release by hybridoma FT6.9 cocultured with NOD pancreatic islets. Type of data set: cell-based, NOD mice. On the procedure:
(§1) Ritonavir (0.6 mg per 10 g of body weight per day) or a placebo (phosphate buffer PBS) was administered by the intraperitoneal route to NOD mice. The pancreatic islets were removed and cultured for 24 hours in the presence or in the absence of 2.5 μg/ml of ritonavir. The cells were then cocultured with MHC-1-restricted hybridomas (FT6.9 and FT7.9 for 24 hours). The quantity of IL-2 was assayed in the supernatant. The following tables present the quantities of IL-2 measured by a test of proliferation (cpm×10^−3).

For another data set, the system named is Hybridoma ETG.9 (MHC-I). The description is as above. Type of data set: cell-based, NOD mice. The procedure:
as §1

The subject of data set [1] is ubiquitin proteasome pathway. Nature of the data set: Degradation of the proteins with a short lifespan (35S pulse-chase). Type of data set: cell-based. Particulars: cells cultured overnight with variable concentration. The procedure: For these analyses, the cells were cultured overnight in the presence of a variable concentration of ritonavir, preincubated in a medium free of methionine and cysteine for 1 hour, subjected to labelling with ^35S-methionine and ^35S-cysteine for one hour, washed in PBS and subjected to a chase for one hour. After one hour, TCA (trichloroacetic acid at 10% final) was added to the supernatant and the radioactivity of the supernatant not precipitated with TCA was quantified with a Lumaplate (Topcount Packard) (FIG. 4A).

Data set [2] relates to M113 cells presenting the MART-1 antigen. Nature of the data set: TNFα production by M77-84 T lymphocytes in response to treated M113 melanoma cells. Particulars: M113 cells cultured 24 hours with various concentrations.
The next data set has as its system MC57 fibroblasts (H-2b). Particulars: MC57 cells infected with LCMV, ritonavir 5 μg/ml for 36 hours.
The next data set concerns hepatitis C virus. Nature of the data set: Clinical case: patient doubly infected with HIV and HCV treated with ritonavir. Type of data set: in vivo, human. From the text: A patient who is a drug addict is monitored for a double infection with HIV and HCV, discovered in 1986 but undoubtedly prior to this date. The progression of the HIV infection is slow, with a viremia established at around 4 Log HIV RNA copies/ml. The level of CD4 T lymphocytes dropped with a first opportunistic lung infection. […] An HIV protease inhibitor, ritonavir, was introduced into the therapy of the patient and followed since then. The HIV viremia became undetectable during the two months which followed the beginning of the treatment before returning to the previous level from the fourth month. The level of CD4 T lymphocytes increased during this period and continued to increase even after the reappearance of the HIV viremia. By contrast, the HCV viremia became negative at the 7th month after the introduction of ritonavir (FIG. 7), and has remained so two years later.

The subject of another data set is LCMV. Type of data set: in vivo, mice. To be noted: day D8; 200 pfu LCMV i.v.
In a further data set the test system is cytotoxic T lymphocytes. Type of data set: in vivo, C57BL/6 mice. Particulars: mice infected in the footpad with LCMV-WE; swelling after seven to eight days.
The subject of data set [3] is M113 cells presenting the MART-1 antigen. Nature of the data set: Proliferation of M77-84 T lymphocytes stimulated by treated M113 cells.
The mark [4] stands for this setting: in vivo PBS, in vitro ritonavir 2.5 μg/ml.
Setting [5] is: in vivo ritonavir, in vitro PBS.
Where [6] appears, read: in vivo ritonavir, in vitro ritonavir.

As for `CC(C)c1nc(CN(C)C(=O)N[C@H](C(=O)N[C@@H](Cc2ccccc2)C[C@H](O)[C@H](Cc2ccccc2)NC(=O)OCc2cncs2)C(C)C)cs1` [ritonavir], the figures for the “percentage in brackets (reduction of IL-2 versus PBS/PBS)” value in the data set with Hybridoma (MHC-I) (setting [4]), in the data set on Hybridoma (MHC-I) (setting [5]) and in the data set on Hybridoma (MHC-I) (setting [6]) were 37%, 47% and 31%, respectively. The “recognition ex vivo of Langerhan's cells by cytotoxic T clones” value with Hybridoma ETG.9 (MHC-I) (cells isolated from NOD mice treated with ritonavir, statement covers both hybridomas) is on record as “no longer recognized”. For the same compound, the “quantity of IL-2 measured by a test of proliferation” value is 40 cpm×10^−3 with Hybridoma ETG.9 (MHC-I) (setting [4]), 34 cpm×10^−3 in the data set with Hybridoma ETG.9 (MHC-I) (setting [5]) and 44 cpm×10^−3 in the data set with Hybridoma ETG.9 (MHC-I) (setting [6]). In data set [1], the “degradation of proteins with a short lifespan” value is listed as “inhibits in a dose-dependent manner”. In addition, the “presentation of MART-1 antigen: release of TNFα by M77-84 T lymphocytes” value in data set [2] is listed as “inhibition”. The “lysis by the anti-LCMV cytotoxic T lymphocytes” value with MC57 fibroblasts (H-2b) is recorded as “strongly inhibits”. The HCV viremia entry with hepatitis C virus (at the 7th month after introduction of ritonavir, remained so two years later) is “negative”. Besides, the HIV viremia result in the data set on hepatitis C virus (during the two months after beginning of treatment, returned to previous level from the fourth month) is given as “undetectable”. In the data set with hepatitis C virus (one patient, during treatment), the “level of CD4 T lymphocytes” value is recorded as “increased”. In the data set with LCMV, the “viral clearance (titre of viruses in the spleen)” value was “decrease in the viral clearance”. Also, the “swelling of the footpad after injection of LCMV” value with cytotoxic T lymphocytes was “markedly inhibited”. In addition, the “presentation of MART-1 antigen: proliferation of M77-84 T lymphocytes” value in [3] (M113 cells cultured 24 hours with 0.1-5 μg/ml, proliferation after 48 hours) was “inhibition”. Moreover, in data set [3] (antigen presenting cells cultured in sera of HIV-negative volunteers obtained 3 hours after a single oral dose of 500 mg), the inhibition of proliferation result was “Up to 70%”.

The record behind these values is US6506555B1, “Use of HIV protease inhibiting compounds” (Institut National de la Sante et de la Recherche Medicale …, priority 1998, dated 2003).
